# Laboratory results taken from patent US20060014834A1, “Retinoid solutions and formulations made therefrom” (priority 2004, published 2006).
# Assays:
# Type in all cases: physicochemical
# [1] = Elevated temperature stability of the actives in the oil in water emulsion of Example 10; conditions: Example 10 emulsion
# Procedure: The elevated temperature stability of the actives in the oil in water emulsion of Example 10 was determined using techniques within the purview of those skilled in the art.
# [2] = Solubility of tretinoin in ethanol, ester cosolvent or both
# Procedure: The method of preparing the solution is not critical. Typically, the cosolvents are combined and the retinoid is added with stirring at room temperature until completely solubilized.
# It has been experimentally determined that tretinoin is not soluble in ethanol in the ratios set forth in Examples A-D:
# Isopropyl myristate (“IPM”) can be replaced with alkyl benzoate, isopropyl palmitate (“IPP”) or diisopropyl adipate to achieve the same results.
# In Examples E-J where alcohol is not present, the retinoids are not soluble in the esters alone. This further confirms the present finding that retinoids can be solubilized in a small amount of alcohol by using specific cosolvents.
# To effectively utilize the chamber in a chamber delivery system, one must balance the concentration of the actives in both chambers. This is necessary to achieve the final, active concentration, which is efficacious as well as compliant with the FDA. The present disclosure teaches how to prepare higher concentrations of tretinoin in solution for the small chamber by using lower concentrations of alcohol by means of cosolvents such a alkyl benzoate, isopropyl myristate, and isopropyl palmitate.
# [3] = Elevated temperature stability of the actives in the liquid to powder suspension system of Example 13; conditions: Example 13 suspension
# Procedure: The elevated temperature stability of the actives in the liquid to powder suspension system of Example 13 was determined using techniques known to those skilled in the art.
# [4] = 25° C., 2 months, unit not given
# [5] = 25° C., 3 months, unit not given
# [6] = 30° C., 1 month, unit not given
# [7] = 30° C., 2 months, unit not given
# [8] = 30° C., 3 months, unit not given
smiles,measurement,setting,value
CC1=C(/C=C/C(C)=C/C=C/C(C)=C/C(=O)O)C(C)(C)CCC1 [Tretinoin],"active content, 25° C., 2 months",[1]; [4],0.0497
same,"active content, 25° C., 3 months",[1]; [5],0.0497
same,"active content, 30° C., 1 month",[1]; [6],0.0490
same,"active content, 30° C., 2 months",[1]; [7],0.0490
same,"active content, 30° C., 3 months",[1]; [8],0.0490
same,"active content, Initial",[1]; initial,0.0497%
same,dissolution in alcohol using ester cosolvent,"[2]; 1 gram of tretinoin in 3 grams of alcohol (33.3 percent solution) with alkyl benzoate, isopropyl myristate, isopropyl palmitate or other esters",completely dissolved
same,solubility in ethanol,"[2]; ethanol alone, tretinoin:ethanol ratios of Examples A-D",not soluble
same,solubility in ethanol plus cosolvent (clear solution),"[2]; same tretinoin:ethanol ratios, cosolvent IPM added (Examples 1-4)",completely dissolve into a clear solution
same,"active content, 25° C., 1 month","[3]; 25° C., 1 month, unit not given",0.0508
same,"active content, 25° C., 2 months",[3]; [4],0.0499
same,"active content, 25° C., 3 months",[3]; [5],0.0497
same,"active content, 30° C., 1 month",[3]; [6],0.051
same,"active content, 30° C., 2 months",[3]; [7],0.0498
same,"active content, 30° C., 3 months",[3]; [8],0.0488
same,"active content, Initial",[3]; initial,0.0517%
